Publication PMC10997755, “Discovery of a small-molecule inhibitor that traps Polθ on DNA and synergizes with PARP inhibitors” (Nature Communications, 2024)
pIC50: −log10 of the molar value.

Key:
DLD1 Parental cells = test: Clonogenic assay; type: cell-based; details: DLD1 Parental
Description: (§1) Cells were plated on six or twelve or twenty-four well plates. In six well plate, 1000 cells/ well of BRCA2 -/-, BRCA1 -/-, PALB2 mut and 500 cells/ well of wildtype pair was plated; In twelve well plate, 600 cells/ well of BRCA2 -/-, BRCA1 -/-, PALB2 mut and 400 cells/ well of wildtype pair was plated; In twenty-four well plate, 500 cells/ well of BRCA2 -/-, BRCA1 -/-, PALB2 mut and 300 cells/ well of wildtype pair was plated. For MEFs, 300 cells per well in six-well plate were seeded. The medium was replaced every 2 days until the colonies were ready for staining in 10–12 days. For staining: Medium was removed from plates, and cells were rinsed with PBS. Fixation was carried out with—Water: Ethanol: Acetic acid (5:4:1) for 30 min followed by staining of colonies with 0.5% crystal violet in Water: Ethanol (3:2) for 2 h at room temperature. The plates were rinsed with water and left for drying overnight at room temperature. Colonies were then counted and IC50 was calculated using results from 3 or more independent experiments. Response curves are shown as mean colony formation +/- S.E.M.

DLD1 BRCA2 -/- cells = test: Clonogenic assay; type: cell-based; details: for Average (colonies): DLD1 BRCA2 -/-
Description: as §1
Data are expressed as mean ± SEM from at least 3 independent experiments with triplicates for each condition unless stated otherwise. When conducting comparison between two groups, two-tailed unpaired t-test was used. Significance was assumed at p < 0.05. Asterisks in the figures indicate significance, ^∗p < 0.05, ^∗∗p < 0.01, ^∗∗∗p < 0.001. Combenefit® software version 2.021 was used to perform synergy analyses for drug combinations between RTx-161 and PARPi. GraphPad Prism 9 software was used to calculate IC50.

Polθ-pol = biological target: T1, Polθ-pol (Homo sapiens, UniProt O75417); test: Cy5 fluorescence Polθ-pol DNA synthesis (strand displacement) IC50 assay; type: biochemical; details: Polθ-pol DNA synthesis, Cy5 fluorescence
T1 construct: purified recombinant human Polθ-pol (comprising amino acid residues 1792–2590); made in house
T1 sequence (O75417 1792-2590): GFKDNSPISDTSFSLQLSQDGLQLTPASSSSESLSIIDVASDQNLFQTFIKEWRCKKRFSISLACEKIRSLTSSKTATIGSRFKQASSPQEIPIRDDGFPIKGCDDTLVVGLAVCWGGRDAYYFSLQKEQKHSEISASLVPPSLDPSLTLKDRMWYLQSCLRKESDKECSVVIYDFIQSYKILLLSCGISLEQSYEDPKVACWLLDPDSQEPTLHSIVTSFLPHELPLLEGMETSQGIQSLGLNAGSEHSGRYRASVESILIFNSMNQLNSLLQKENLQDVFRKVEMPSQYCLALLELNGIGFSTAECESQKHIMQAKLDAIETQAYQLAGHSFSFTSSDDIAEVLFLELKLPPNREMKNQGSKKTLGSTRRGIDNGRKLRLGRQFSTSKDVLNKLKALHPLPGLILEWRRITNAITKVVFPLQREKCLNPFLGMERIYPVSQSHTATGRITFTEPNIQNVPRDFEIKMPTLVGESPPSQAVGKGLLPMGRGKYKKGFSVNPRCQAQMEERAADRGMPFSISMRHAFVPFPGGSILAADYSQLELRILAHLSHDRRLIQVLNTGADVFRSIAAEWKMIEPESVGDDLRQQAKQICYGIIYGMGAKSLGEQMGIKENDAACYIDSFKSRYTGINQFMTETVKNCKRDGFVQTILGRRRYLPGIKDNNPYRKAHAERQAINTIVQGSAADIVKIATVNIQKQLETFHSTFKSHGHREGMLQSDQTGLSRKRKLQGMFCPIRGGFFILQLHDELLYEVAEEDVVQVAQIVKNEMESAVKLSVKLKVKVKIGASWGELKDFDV
Description: The following Cy5 fluorescence assay was used to measure the ability of compounds to inhibit Polθ-pol in vitro. The fluorescent based assay was performed as follows: 60 nM of the pre-annealed primer-template containing a 5’ Cy5 fluorophore conjugated template strand (RP486-Cy5), a downstream complementary oligo conjugated with a 3’ Iowa BlackReg Dark quencher (RP343BHQRQ) and a primer strand (RP469D) was mixed with 50 uM 2'-deoxyribonucleoside triphosphates (dNTPs), 0.1 mg/mL Bovine serum albumin (BSA), 0.01% NP-40, 10% glycerol, 1 mM dithiothreitol (DTT), 10 mM MgCl2, 25 mM TrisHCl pH 7.8 in the presence of 2.5% DMSO with or without various concentrations (7-point dilution series) of Polθ-pol small-molecule inhibitors at 37 °C in a volume of 40 μL. The reactions were initiated by the addition of 5 nM of purified recombinant human Polθ-pol (comprising amino acid residues 1792–2590). The reactions were terminated by the addition of 20 mM EDTA after 18 min, and the Cy5 fluorescence intensity was measured using a CLARIOstar (BMG Labtech) plate reader. Reactions were performed in triplicate and the % inhibition at each concentration of the respective compound of Formula I was based on the mean.

Cc1cccc(N(C)C(=O)[C@@H]2[C@H](O)CCN2c2nc(C)cc(C(F)(F)F)c2C#N)c1 [ART558, reference compound] was tested, and the “Average (colonies)” value (DLD1 Parental cells; 0.1875 uM, block 1 of sheet) was 47.5, the “Average (colonies)” value (DLD1 Parental cells; 0.1875 uM, block 2 of sheet) was 42 and the “Average (colonies)” value (DLD1 Parental cells; 0.1875 uM, block 3 of sheet) was 77. The “Average (colonies)” value (DLD1 Parental cells; 0.375 uM, block 1 of sheet) was 51, the “Average (colonies)” value (DLD1 Parental cells; 0.375 uM, block 2 of sheet) was 61 and the “Average (colonies)” value (DLD1 Parental cells; 0.375 uM, block 3 of sheet) was 80. For the same compound, the “Average (colonies)” value (DLD1 Parental cells; 0.75 uM, block 1 of sheet) was 39.5, the “Average (colonies)” value (DLD1 Parental cells; 0.75 uM, block 2 of sheet) was 41.5 and the “Average (colonies)” value (DLD1 Parental cells; 0.75 uM, block 3 of sheet) was 76.5. The “Average (colonies)” value (DLD1 Parental cells; 1.5 uM, block 1 of sheet) was 42.5, the “Average (colonies)” value (DLD1 Parental cells; 1.5 uM, block 2 of sheet) was 44.5 and the “Average (colonies)” value (DLD1 Parental cells; 1.5 uM, block 3 of sheet) was 77.5. The “Average (colonies)” value (DLD1 Parental cells; 3 uM, block 1 of sheet) was 58.5, the “Average (colonies)” value (DLD1 Parental cells; 3 uM, block 2 of sheet) was 36.5 and the “Average (colonies)” value (DLD1 Parental cells; 3 uM, block 3 of sheet) was 78.5. The “Average (colonies)” value (DLD1 Parental cells; 6 uM, block 1 of sheet) was 42.5, the “Average (colonies)” value (DLD1 Parental cells; 6 uM, block 2 of sheet) was 59 and the “Average (colonies)” value (DLD1 Parental cells; 6 uM, block 3 of sheet) was 76.5. The “Average (colonies)” value (DLD1 Parental cells; 12 uM, block 2 of sheet) was 57.5, the “Average (colonies)” value (DLD1 Parental cells; 12 uM, block 3 of sheet) was 79 and the “Average (colonies)” value (DLD1 BRCA2 -/- cells; 0.1875 uM, block 1 of sheet) was 21.5. For the same compound, the “Average (colonies)” value (DLD1 BRCA2 -/- cells; 0.1875 uM, block 2 of sheet) was 41.5, the “Average (colonies)” value (DLD1 BRCA2 -/- cells; 0.1875 uM, block 3 of sheet) was 18 and the “Average (colonies)” value (DLD1 BRCA2 -/- cells; 0.375 uM, block 1 of sheet) was 24.5. For the same compound, the “Average (colonies)” value (DLD1 BRCA2 -/- cells; 0.375 uM, block 2 of sheet) was 37.5, the “Average (colonies)” value (DLD1 BRCA2 -/- cells; 0.375 uM, block 3 of sheet) was 18.5 and the “Average (colonies)” value (DLD1 BRCA2 -/- cells; 0.75 uM, block 1 of sheet) was 10.5. For the same compound, the “Average (colonies)” value (DLD1 BRCA2 -/- cells; 0.75 uM, block 2 of sheet) was 31, the “Average (colonies)” value (DLD1 BRCA2 -/- cells; 0.75 uM, block 3 of sheet) was 18.5 and the “Average (colonies)” value (DLD1 BRCA2 -/- cells; 1.5 uM, block 1 of sheet) was 15.5. The “Average (colonies)” value (DLD1 BRCA2 -/- cells; 1.5 uM, block 2 of sheet) was 30.5, the “Average (colonies)” value (DLD1 BRCA2 -/- cells; 1.5 uM, block 3 of sheet) was 20.5 and the “Average (colonies)” value (DLD1 BRCA2 -/- cells; 3 uM, block 1 of sheet) was 14. The “Average (colonies)” value (DLD1 BRCA2 -/- cells; 3 uM, block 2 of sheet) was 22.5, the “Average (colonies)” value (DLD1 BRCA2 -/- cells; 3 uM, block 3 of sheet) was 15 and the “Average (colonies)” value (DLD1 BRCA2 -/- cells; 6 uM, block 1 of sheet) was 6.5. For the same compound, the “Average (colonies)” value (DLD1 BRCA2 -/- cells; 6 uM, block 2 of sheet) was 28.5, the “Average (colonies)” value (DLD1 BRCA2 -/- cells; 6 uM, block 3 of sheet) was 8 and the “Average (colonies)” value (DLD1 BRCA2 -/- cells; 12 uM, block 2 of sheet) was 11.5. The “Average (colonies)” value (DLD1 BRCA2 -/- cells; 12 uM, block 3 of sheet) was 6, the pIC50 (DLD1 BRCA2 -/- cells; Homo sapiens, DLD-1, DLD1 cells, label beside BRCA2-null curve, read-out: IC50 clonogenic survival) was roughly 5.60 and the “potency in BRCA2-null cells compared with RTx-161” value (DLD1 BRCA2 -/- cells; clonogenic survival) was “slightly reduced potency”. It also gave a pIC50 (Polθ-pol) of 7.94.
